Assay results as given in patent US20050202424A1, “Regulators of biofilm formation and uses thereof” (priority 2001, published 2005).
Converted amounts (≈) assume the structure as drawn.

Columns and labels:
PA14 RSCV = assay: Resistance of PA14 RSCV colonies to antibiotics on plates; format: cell-based, Pseudomonas aeruginosa; conditions: for resistance of PA14 RSCV colonies: 8 individual colonies
Experimental: To induce such phenotypic variants, an overnight culture of P. aeruginosa strain PA14 (UCBPP-PA14) was inoculated onto Luria-Bertani (LB) containing 200 μg/ml of kanamycin, incubated at 37° C. for 48 hours, at which time, antibiotic resistant rough small variants were isolated. Antibiotic resistant colonies arose at a frequency of 10^−6-10^−7. […] In addition to being resistant to kanamycin, (up to 40 times the susceptibility level of the wild-type), 8 individual PA14 RSCV colonies tested were also resistant to amikacin (30 μg/ml), carbenicillin (300 μg/ml), gentamicin (30 μg/ml), tobramycin (10 μg/ml), and tetracycline (150 μg/ml). Consistent with this latter result, antibiotic resistant variants were also obtained at frequencies of about 10^−7 by plating overnight cultures of PA14 on media containing similar concentrations of the antibiotics mentioned above.

[1] = system: P. aeruginosa small colony variants in CF sputum samples; assay: Antibiotic resistant small colony variants in CF sputum samples plated on cetrimide agar with and without antibiotics; format: cell-based, Pseudomonas aeruginosa
Experimental: Five CF sputum samples from the Clinical Microbiology Laboratory at Massachusetts General Hospital were suspended in 5 ml of 10 mM MgSO4. Serial dilutions of the samples were then plated onto cetrimide agar plates with and without antibiotics. The plates were screened for the presence of P. aeruginosa after 24 and 48 hours of incubation at 37° C. The identity of the colonies was later confirmed by probing colony lifts with the exotoxin A gene from P. aeruginosa. To this end, the EcoRI-HindIII fragment of plasmid pRGI containing the exoA gene (Samadpour et al., J. Clin. Microbiol. 26:2319-23, 1988) was gel isolated and labeled using a random priming kit (Boehringer, Mannheim, Indianapolis, Ind.). Colonies were transferred to nylon membranes and hybridizations were performed according to the manufacturer's recommendations (NEN Research Products, Boston, Mass.). Identification of colonies carrying the exoA gene was then performed using a Phosphorimager (Amersham Pharmacia Biotech Inc., Piscataway, N.J.).
The presence of P. aeruginosa antibiotic resistant small colony variants was determined by plating CF sputum samples on cetrimide agar with and without the indicated antibiotics. […]

wild-type PA14 = assay: Minimal inhibitory concentration of kanamycin in liquid culture; format: cell-based; conditions: Pseudomonas aeruginosa; PA14 in M63 liquid medium; read-out: concentration of kanamycin required to inhibit growth (MIC)
Experimental: Phenotypic variation is a common phenomenon in Gram-negative bacteria that often involves environmentally regulated changes in observable phenotypes produced by modifications in surface components. The effect that different environmental stimuli had on the appearance of kanamycin-resistant phenotypic variants was examined. Bacteria were grown in LB broth, or in supplemented LB with appropriate antibiotics at the indicated temperature with aeration. […] Moreover, the frequency of variants increased 200-fold when plates were incubated at 25° C. compared to 37° C. (FIG. 2A). Finally, a dramatic 10^6-fold increase was obtained on minimal M63 salts as compared to LB medium (FIG. 2A). Minimal salt media consisted of M63 supplemented with 0.3% glucose, 1 mM MgSO4, and 0.5% casamino acids. Importantly, there was a correlation between the frequency of appearance of kanamycin resistant variants on plates and minimal inhibitory concentrations (MICs) of kanamycin in liquid culture for the wild-type PA14 using the culture conditions described above (FIG. 2B).

[2] = system: PA14 and PA14 RSCV biofilms; assay: Biofilm resistance to tobramycin in flow chambers (viable biomass by CSLM of GFP-tagged cells); format: cell-based, Pseudomonas aeruginosa; conditions: continuous flow of tobramycin 200 μg/ml on established biofilms
Experimental: To determine whether the antibiotic resistant phenotype of PA14 RSCV is associated with altered biofilm formation, PA14 RSCV was cultured under biofilm-forming conditions as follows. For biofilm characterization, PA14 RSCV biofilms were cultivated under continuous culture conditions in flow-chambers with channel dimensions of 12 by 52 by 2 mm. Flow media consisted of M63 supplemented with 0.5% casamino acids and 0.3% glucose. For measurement of biofilm resistance, bacteria were cultivated in flow-chambers with channel dimensions of 1 by 40 by 4 mm (Stovall Inc., Greensboro, N.C.). In this case, flow media consisted of FAB medium (0.1 mM CaCl2, 0.01 mM Fe-EDTA, 0.15 mM NH4SO4, 0.33 mM Na2HPO4, 0.2 mM KH2PO4 and 1 mM MgCl2) supplemented with casamino acids (0.5%) and sodium citrate (10 mM). Flow-cells in both cases were inoculated with 100-fold dilutions of overnight cultures of PA14 and PA14 RSCV carrying the green fluorescent protein (GFP) in plasmid SMC21, a derivative of pSMC2 (Bloemberg et al., Appl. Environ. Microbiol. 63: 4543-4551, 1997). […] The volume (in μm^3) of individual biofilm structures was determined from serial sections using ImageSpace software (Molecular Dynamics, Sunnyvale, Calif.).
Viable biomass was measured by CSLM analysis of GFP-tagged PA14 and PA14 RSCV cells using GFP expression as a viability marker as described previously (FIG. 1E).

[3] = Sample 5, patient on Amikacin(IV)/Ceftazidime(IV)
[4] = Sample 38, patient on Tobramycin (I)/Levofloxacin
[5] = Sample 41, no antibiotic treatment
[6] = Sample 42, no antibiotic treatment
[7] = Sample 43, no antibiotic treatment

Compound	resistance of PA14 RSCV colonies (PA14 RSCV; amikacin 30 μg/ml)	Variants resistant to antibiotic (%) [1, 3]	Variants resistant to antibiotic (%) [1, 4]	Variants resistant to antibiotic (%) [1, 5]	Variants resistant to antibiotic (%) [1, 6]	Variants resistant to antibiotic (%) [1, 7]	resistance of PA14 RSCV colonies (PA14 RSCV; carbenicillin 300 μg/ml)	resistance to kanamycin relative to the susceptibility level of the wild-type (PA14 RSCV; PA14 RSCV colonies)	MIC (wild-type PA14)	resistance of PA14 RSCV colonies (PA14 RSCV; tobramycin 10 μg/ml)	resistance of PA14 RSCV biofilm to tobramycin treatment versus wild-type PA14 biofilm [2]	resistance of PA14 RSCV colonies (PA14 RSCV; gentamicin 30 μg/ml)
NCC[C@H](O)C(=O)N[C@@H]1C[C@H](N)[C@@H](O[C@H]2O[C@H](CN)[C@@H](O)[C@H](O)[C@H]2O)[C@H](O)[C@H]1O[C@H]1O[C@H](CO)[C@@H](O)[C@H](N)[C@H]1O [amikacin]	resistant	100%	100%	15%	5%	0.2%						
CC1(C)S[C@@H]2[C@H](NC(=O)C(C(=O)O)c3ccccc3)C(=O)N2[C@H]1C(=O)O (some centres unmarked) [carbenicillin]							resistant					
NC[C@H]1O[C@H](O[C@H]2[C@H](O)[C@@H](O[C@H]3O[C@H](CO)[C@@H](O)[C@H](N)[C@H]3O)[C@H](N)C[C@@H]2N)[C@H](O)[C@@H](O)[C@@H]1O [kanamycin]								up to 40 times	475 µg/mL (≈ 980 µM)			
CN(C)[C@@H]1C(O)=C(C(N)=O)C(=O)[C@@]2(O)C(O)=C3C(=O)c4c(O)cccc4[C@@](C)(O)[C@H]3C[C@@H]12 [tetracycline]		30%	32%	0%	0%							
NC[C@H]1O[C@H](O[C@H]2[C@H](O)[C@@H](O[C@H]3O[C@H](CO)[C@@H](O)[C@H](N)[C@H]3O)[C@H](N)C[C@@H]2N)[C@H](N)C[C@@H]1O [tobramycin]		50%	100%	0.10%	0%	0.5%				resistant	more resistant	
gentamicin		100%	100%	10%	6.6%	0.5%						resistant
